Reference: patent US7858640B2, “Quinolines and their therapeutic use” (Pulmagen Therapeutics (Asthma) Limited, priority 2005, dated 2010)

Target: T1, CRTH2 receptor (Homo sapiens, UniProt Q9Y5Y4)
T1 sequence (Q9Y5Y4 1-395): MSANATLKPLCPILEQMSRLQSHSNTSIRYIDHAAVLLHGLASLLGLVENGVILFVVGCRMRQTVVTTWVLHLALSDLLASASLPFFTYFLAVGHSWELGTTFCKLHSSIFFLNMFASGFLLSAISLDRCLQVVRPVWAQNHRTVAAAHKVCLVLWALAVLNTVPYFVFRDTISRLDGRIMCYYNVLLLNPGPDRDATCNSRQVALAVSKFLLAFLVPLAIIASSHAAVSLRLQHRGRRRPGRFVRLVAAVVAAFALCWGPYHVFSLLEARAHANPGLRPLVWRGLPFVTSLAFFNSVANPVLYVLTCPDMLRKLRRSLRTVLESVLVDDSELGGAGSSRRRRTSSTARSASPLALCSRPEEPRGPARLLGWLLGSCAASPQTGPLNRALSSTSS
Assay: Radioligand binding assay ([3H]-PGD2 displacement, SPA)
Parameters: expressed in transfected cells; host or cells: HEK cell membranes
Settings: HEK cell membranes expressing the CRTH2 receptor, 1 nM [3H]-PGD2; Ki from IC50 by Cheng-Prusoff
Procedure: Radioligand Binding Assay
The receptor binding assay is performed in a final volume of 200 μL binding buffer [10 mM BES (pH 7.4), 1 mM EDTA, 10 mM manganese chloride, 0.01% BSA] and 1 nM [^3H]-PGD2 (Amersham Biosciences UK Ltd). Ligands are added in assay buffer containing a constant amount of DMSO (1% by volume). Total binding is determined using 1% by volume of DMSO in assay buffer and non-specific binding is determined using 10 μM of unlabeled PGD2 (Sigma). Human embryonic kidney (HEK) cell membranes (3.5 μg) expressing the CRTH2 receptor are incubated with 1.5 mg wheatgerm agglutinin SPA beads and 1 nM [^3H]-PGD2 (Amersham Biosciences UK Ltd) and the mixture incubated for 3 hours at room temperature. Bound [^3H]-PGD2 is detected using a Microbeta TRILUX liquid scintillation counter (Perkin Elmer). Compound IC50 value is determined using a 6-point dose response curve in duplicate with a semi-log compound dilution series. IC50 calculations are performed using Excel and XLfit (Microsoft), and this value is used to determine a Ki value for the test compound using the Cheng-Prusoff equation.

Row | Ki [nM] | Structure (SMILES)
1 | < 100 | CCc1nc2c(F)ccc(OCC(=O)O)c2c(OC(F)F)c1Cc1ccc(F)cc1F [Example 53, [3-(2,4-difluorobenzyl)-4-difluoromethoxy-2-ethyl-8-fluoroquinolin-5-yloxy]acetic Acid]
2 | < 100 | COc1c(Cc2ccc(Cl)cc2)c(C)nc2c(Cl)ccc(OCC(=O)O)c12 [Example 1, [8-chloro-3-(4-chlorobenzyl)-4-methoxy-2-methylquinolin-5-yloxy]acetic Acid]
3 | < 1000 | Cc1cc(OCC(=O)O)c2c(C)c(Cc3ccc(Cl)cc3)c(C)nc2c1 [Example 4, [3-(4-chlorobenzyl)-2,4,7-trimethylquinolin-5-yloxy]acetic Acid]
4 | < 100 | CC(C)c1nc2c(Cl)ccc(OCC(=O)O)c2c(OC(F)F)c1Cc1ccc(S(C)(=O)=O)cc1 [Example 43, [8-chloro-4-difluoromethoxy-2-isopropyl-3-(4-methanesulfonylbenzyl)quinolin-5-yloxy]acetic Acid]
5 | < 100 | CCc1nc2c(Cl)ccc(OCC(=O)O)c2c(C)c1Cc1ccc(Cl)cc1 [Example 17, [8-chloro-3-(4-chlorobenzyl)-2-ethyl-4-methylquinolin-5-yloxy]acetic Acid]
6 | < 100 | Cc1c(Cc2ccc(Cl)cc2Cl)c(OC(F)F)nc2c(F)ccc(O[C@H](C)C(=O)O)c12 [Example 70, (R)-2-[3-(2,4-dichlorobenzyl)-2-difluoromethoxy-8-fluoro-4-methylquinolin-5-yloxy]propionic Acid]
7 | < 100 | Cc1nc2c(Cl)ccc(OCC(=O)O)c2c(OC(F)F)c1Cc1ccc(Cl)cc1 [Example 9, [8-chloro-3-(4-chlorobenzyl)-4-difluoromethoxy-2-methylquinolin-5-yloxy]acetic Acid]
8 | < 10000 | Cc1cc(OCC(=O)O)c2c(C)c(Cc3ccc(Cl)cc3)cnc2c1 [Example 78, [3-(4-chlorobenzyl)-4,7-dimethylquinolin-5-yloxy]acetic Acid]
9 | < 100 | CCc1nc2c(F)ccc(OCC(=O)O)c2c(OC(F)F)c1Cc1ccc(Cl)cc1Cl [Example 54, [3-(2,4-dichlorobenzyl)-4-difluoromethoxy-2-ethyl-8-fluoroquinolin-5-yloxy]acetic acid]
10 | < 1000 | Cc1c(Cc2ccc(F)cc2)c(OC(C)C)nc2c(Cl)ccc(OCC(=O)O)c12 [Example 31, [8-chloro-3-(4-fluorobenzyl)-2-isopropoxy-4-methylquinolin-5-yloxy]acetic Acid]
11 | < 100 | Cc1c(Cc2ccc(S(C)(=O)=O)cc2)c(C#N)nc2c(Cl)ccc(OCC(=O)O)c12 [Example 44, [8-chloro-2-cyano-3-(4-methanesulfonylbenzyl)-4-methylquinolin-5-yloxy]acetic Acid]
12 | < 100 | Cc1nc2c(Cl)ccc(CC(=O)O)c2c(C)c1Cc1ccc(Cl)cc1 [Example 6, [8-chloro-3-(4-chlorobenzyl)-2,4-dimethylquinolin-5-yl]acetic Acid]
13 | < 100 | CCS(=O)(=O)c1ccc(Cc2c(OC(F)F)nc3c(F)ccc(OCC(=O)O)c3c2C)cc1 [Example 61, [2-difluoromethoxy-3-(4-ethanesulfonylbenzyl)-8-fluoro-4-methylquinolin-5-yloxy]acetic Acid]
14 | < 100 | Cc1c(Cc2ccc(Cl)cc2F)c(OC(F)F)nc2c(F)ccc(OCC(=O)O)c12 [Example 56, [3-(4-chloro-2-fluorobenzyl)-2-difluoromethoxy-8-fluoro-4-methylquinolin-5-yloxy]acetic Acid]
15 | < 100 | CCc1nc2c(F)ccc(OCC(=O)O)c2c(OC(F)F)c1Cc1ccc(C(=O)N2CCCC2)cc1 [Example 65, {4-difluoromethoxy-2-ethyl-8-fluoro-3-[4-(pyrrolidine-1-carbonyl)benzyl]quinolin-5-yloxy}acetic Acid]
16 | < 100 | CCc1nc2c(F)ccc(OCC(=O)O)c2c(OC(F)F)c1Cc1ccc(S(C)(=O)=O)cc1Cl [Example 47, [3-(2-chloro-4-methanesulfonylbenzyl)-4-difluoromethoxy-2-ethyl-8-fluoroquinolin-5-yloxy]acetic acid]
17 | < 100 | CCc1c(Cc2ccc(Cl)cc2)c(C)nc2c(Cl)ccc(OCC(=O)O)c12 [Example 16, [8-chloro-3-(4-chlorobenzyl)-4-ethyl-2-methylquinolin-5-yloxy]acetic acid]
18 | < 100 | Cc1c(Cc2ccc(Cl)cc2)c(OC(F)F)nc2c(F)ccc(OCC(=O)O)c12 [Example 30, [3-(4-chlorobenzyl)-2-difluoromethoxy-8-fluoro-4-methylquinolin-5-yloxy]-acetic Acid]

Row | Ki [nM] | Structure (SMILES)
19 | < 10000 | Cc1nc2cccc(OCC(=O)O)c2cc1Cc1ccc(Cl)cc1 [Example 79, [3-(4-chlorobenzyl)-2-methylquinolin-5-yloxy]acetic Acid]
20 | < 100 | Cc1c(Cc2ccc(S(C)(=O)=O)cc2)c(OC(F)F)nc2c(Cl)ccc(OCC(=O)O)c12 [Example 34, [8-chloro-2-difluoromethoxy-3-(4-methanesulfonylbenzyl)-4-methylquinolin-5-yloxy]acetic Acid]
21 | < 100 | CCc1nc2c(F)ccc(OCC(=O)O)c2c(OC(F)F)c1Cc1ccc(S(C)(=O)=O)cc1 [Example 45, [4-difluoromethoxy-2-ethyl-8-fluoro-3-(4-methanesulfonylbenzyl)-quinolin-5-yloxy]acetic Acid]
22 | < 100 | Cc1nc2cc(Cl)cc(CC(=O)O)c2c(C)c1Cc1ccc(Cl)cc1 [Example 11, [7-chloro-3-(4-chlorobenzyl)-2,4-dimethylquinolin-5-yl]acetic acid]
23 | < 100 | CCc1nc2c(F)ccc(O[C@@H](C)C(=O)O)c2c(OC(F)F)c1Cc1ccc(Cl)cc1Cl [Example 74, (S)-2-[3-(2,4-dichlorobenzyl)-4-difluoromethoxy-2-ethyl-8-fluoroquinolin-5-yloxy]propionic Acid]
24 | < 100 | CCc1nc2c(Cl)ccc(OCC(=O)O)c2c(OC(F)F)c1Cc1ccc(Cl)cc1 [Example 39, [8-chloro-3-(4-chlorobenzyl)-4-difluoromethoxy-2-ethylquinolin-5-yloxy]acetic Acid]
25 | < 100 | Cc1nc2c(Cl)ccc(OC(C)C(=O)O)c2c(C)c1Cc1ccc(Cl)cc1 (centres unmarked) [Example 33, 2-[8-chloro-3-(4-chlorobenzyl)-2,4-dimethylquinolin-5-yloxy]propionic Acid]
26 | < 100 | Cc1nc2c(Cl)ccc(OCC(=O)O)c2c(C)c1S(=O)(=O)c1ccc(Cl)cc1 [Example 21, [8-chloro-3-(4-chlorobenzenesulfonyl)-2,4-dimethylquinolin-5-yloxy]acetic Acid]
27 | < 100 | CCc1nc2c(F)ccc(OCC(=O)O)c2c(OC(F)F)c1Cc1ccc(S(=O)(=O)CC)cc1 [Example 60, [4-difluoromethoxy-3-(4-ethanesulfonylbenzyl)-2-ethyl-8-fluoroquinolin-5-yloxy]acetic Acid]
28 | < 100 | CCc1nc2c(F)ccc(OCC(=O)O)c2c(OC(F)F)c1Cc1ccc(C(=O)N2CCCC2)cc1Cl [Example 72, {3-[2-chloro-4-(pyrrolidine-1-carbonyl)benzyl]-4-difluoromethoxy-2-ethyl-8-fluoroquinolin-5-yloxy}acetic Acid]
29 | < 100 | CCc1nc2c(F)ccc(OCC(=O)O)c2c(OC(F)F)c1Cc1ccc(C(=O)NC2CCC2)cc1Cl [Example 76, [3-(2-chloro-4-cyclobutylcarbamoylbenzyl)-4-difluoromethoxy-2-ethyl-8-fluoroquinolin-5-yloxy]acetic Acid]
30 | < 1000 | Cc1cc(CC(=O)O)c2c(C)c(Cc3ccc(Cl)cc3)c(C)nc2c1 [Example 5, [3-(4-chlorobenzyl)-2,4,7-trimethylquinolin-5-yl]acetic Acid]
31 | < 100 | Cc1c(Cc2ccc(F)cc2)c(OC(F)F)nc2c(Cl)ccc(OCC(=O)O)c12 [Example 19, [8-chloro-2-difluoromethoxy-3-(4-fluorobenzyl)-4-methylquinolin-5-yloxy]acetic acid]
32 | < 1000 | Cc1nc2c(Cl)ccc(OCC(=O)NS(C)(=O)=O)c2c(C)c1Cc1ccc(Cl)cc1 [Example 13, N-{2-[8-chloro-3-(4-chlorobenzyl)-2,4-dimethylquinolin-5-yloxy]-acetyl}methanesulfonamide]
33 | < 100 | Cc1c(Cc2ccc(S(C)(=O)=O)cc2)c(OC(F)F)nc2c(F)ccc(OCC(=O)O)c12 [Example 48, [2-difluoromethoxy-8-fluoro-3-(4-methanesulfonylbenzyl)-4-methylquinolin-5-yloxy]acetic acid]
34 | < 100 | CCc1nc2c(F)ccc(OCC(=O)O)c2c(OC(F)F)c1Cc1ccc(Cl)cc1F [Example 63, [3-(4-chloro-2-fluorobenzyl)-4-difluoromethoxy-2-ethyl-8-fluoroquinolin-5-yloxy]acetic acid]
35 | < 100 | CCc1nc2c(Cl)ccc(OCC(=O)O)c2c(CC)c1Cc1ccc(S(C)(=O)=O)cc1 [Example 41, [8-chloro-2,4-diethyl-3-(4-methanesulfonylbenzyl)quinolin-5-yloxy]acetic Acid]
